Test: xn = mol fraction of the nth substance listed
Conditions: 101 kPa, Liquid; for speed of sound: Sing-around technique in a fixed-path interferometer; for mass density: Vibrating tube method

CCCCCCCCCCCC[n+]1ccn(C)c1.[Cl-] [1-dodecyl-3-methylimidazolium chloride] + O
Conditions	mass density [kg/m3]	speed of sound [m/s]
283 K, x1 = 2.7e-05	999.688	–
283 K, x1 = 3e-05	999.704	–
283 K, x1 = 4.8e-05	999.71	–
283 K, x1 = 7.4e-05	999.71	–
283 K, x1 = 9.4e-05	999.705	–
283 K, x1 = 0.000109	999.71	–
283 K, x1 = 0.000129	999.718	–
283 K, x1 = 0.000145	999.717	–
283 K, x1 = 0.000163	999.735	–
283 K, x1 = 0.000181	999.724	–
283 K, x1 = 0.000208	999.73	–
283 K, x1 = 0.000234	999.729	–
283 K, x1 = 0.000248	999.744	–
283 K, x1 = 0.000273	999.743	–
283 K, x1 = 0.000286	999.744	–
283 K, x1 = 0.000302	999.732	–
283 K, x1 = 0.000319	999.749	–
283 K, x1 = 0.000341	999.737	–
283 K, x1 = 0.000384	999.728	–
283 K, x1 = 0.000407	999.721	–
283 K, x1 = 0.000428	999.712	–
283 K, x1 = 0.0027	–	1448.4
283 K, x1 = 0.003	–	1448.5
283 K, x1 = 0.0048	–	1448.8
283 K, x1 = 0.0074	–	1449.3
283 K, x1 = 0.0094	–	1449.7
283 K, x1 = 0.0109	–	1449.9
283 K, x1 = 0.0129	–	1450.2
283 K, x1 = 0.0145	–	1450.5
283 K, x1 = 0.0163	–	1450.8
283 K, x1 = 0.0181	–	1451.2
283 K, x1 = 0.0208	–	1451.7
283 K, x1 = 0.0234	–	1452
283 K, x1 = 0.0248	–	1452.2
283 K, x1 = 0.0273	–	1452.6
283 K, x1 = 0.0286	–	1452.7
283 K, x1 = 0.0302	–	1452.8
283 K, x1 = 0.0319	–	1453.1
283 K, x1 = 0.0341	–	1453.5
283 K, x1 = 0.0384	–	1453.5
283 K, x1 = 0.0407	–	1453.7
283 K, x1 = 0.0428	–	1453.7
288 K, x1 = 2.7e-05	999.099	–
288 K, x1 = 3e-05	999.118	–
288 K, x1 = 4.8e-05	999.119	–
288 K, x1 = 7.4e-05	999.115	–
288 K, x1 = 9.4e-05	999.109	–
288 K, x1 = 0.000109	999.114	–
288 K, x1 = 0.000129	999.12	–
288 K, x1 = 0.000145	999.116	–
288 K, x1 = 0.000163	999.133	–
288 K, x1 = 0.000181	999.119	–
288 K, x1 = 0.000208	999.122	–
288 K, x1 = 0.000234	999.12	–
288 K, x1 = 0.000248	999.133	–
288 K, x1 = 0.000273	999.127	–
288 K, x1 = 0.000286	999.125	–
288 K, x1 = 0.000302	999.113	–
288 K, x1 = 0.000319	999.128	–
288 K, x1 = 0.000341	999.116	–
288 K, x1 = 0.000384	999.108	–
288 K, x1 = 0.000407	999.096	–
288 K, x1 = 0.000428	999.082	–
288 K, x1 = 0.0027	–	1466.7
288 K, x1 = 0.003	–	1466.8
288 K, x1 = 0.0048	–	1467.1
288 K, x1 = 0.0074	–	1467.6
288 K, x1 = 0.0094	–	1467.9
288 K, x1 = 0.0109	–	1468.1
288 K, x1 = 0.0129	–	1468.4
288 K, x1 = 0.0145	–	1468.6
288 K, x1 = 0.0163	–	1468.9
288 K, x1 = 0.0181	–	1469.2
288 K, x1 = 0.0208	–	1469.7
288 K, x1 = 0.0234	–	1470
288 K, x1 = 0.0248	–	1470.2
288 K, x1 = 0.0273	–	1470.5
288 K, x1 = 0.0286	–	1470.6
288 K, x1 = 0.0302	–	1470.7
288 K, x1 = 0.0319	–	1470.9
288 K, x1 = 0.0341	–	1471
288 K, x1 = 0.0384	–	1471
288 K, x1 = 0.0407	–	1471.2
288 K, x1 = 0.0428	–	1471.2
293 K, x1 = 2.7e-05	998.213	–
293 K, x1 = 3e-05	998.232	–
293 K, x1 = 4.8e-05	998.233	–
293 K, x1 = 7.4e-05	998.224	–
293 K, x1 = 9.4e-05	998.217	–
293 K, x1 = 0.000109	998.222	–
293 K, x1 = 0.000129	998.227	–
293 K, x1 = 0.000145	998.219	–
293 K, x1 = 0.000163	998.236	–
293 K, x1 = 0.000181	998.221	–
293 K, x1 = 0.000208	998.22	–
293 K, x1 = 0.000234	998.218	–
293 K, x1 = 0.000248	998.227	–
293 K, x1 = 0.000273	998.218	–
293 K, x1 = 0.000286	998.214	–
293 K, x1 = 0.000302	998.2	–
293 K, x1 = 0.000319	998.213	–
293 K, x1 = 0.000341	998.199	–
293 K, x1 = 0.000384	998.191	–
293 K, x1 = 0.000407	998.175	–
293 K, x1 = 0.000428	998.16	–
293 K, x1 = 0.0027	–	1482.9
293 K, x1 = 0.003	–	1483
293 K, x1 = 0.0048	–	1483.3
293 K, x1 = 0.0074	–	1483.7
293 K, x1 = 0.0094	–	1484
293 K, x1 = 0.0109	–	1484.2
293 K, x1 = 0.0129	–	1484.5
293 K, x1 = 0.0145	–	1484.7
293 K, x1 = 0.0163	–	1485
293 K, x1 = 0.0181	–	1485.2
293 K, x1 = 0.0208	–	1485.6
293 K, x1 = 0.0234	–	1485.9
293 K, x1 = 0.0248	–	1486
293 K, x1 = 0.0273	–	1486.3
293 K, x1 = 0.0286	–	1486.4
293 K, x1 = 0.0302	–	1486.5
293 K, x1 = 0.0319	–	1486.6
293 K, x1 = 0.0341	–	1486.7
293 K, x1 = 0.0384	–	1486.7
293 K, x1 = 0.0407	–	1486.9
293 K, x1 = 0.0428	–	1486.9
298 K, x1 = 0.0027	–	1497.1
298 K, x1 = 0.003	–	1497.2
298 K, x1 = 0.0048	–	1497.4
298 K, x1 = 0.0074	–	1497.8
298 K, x1 = 0.0094	–	1498.1
298 K, x1 = 0.0109	–	1498.3
298 K, x1 = 0.0129	–	1498.5
298 K, x1 = 0.0145	–	1498.7
298 K, x1 = 0.0163	–	1499
298 K, x1 = 0.0181	–	1499.2
298 K, x1 = 0.0208	–	1499.6
298 K, x1 = 0.0234	–	1499.8
298 K, x1 = 0.0248	–	1500
298 K, x1 = 0.0273	–	1500.2
298 K, x1 = 0.0286	–	1500.3
298 K, x1 = 0.0302	–	1500.3
298 K, x1 = 0.0319	–	1500.5
298 K, x1 = 0.0341	–	1500.5
298 K, x1 = 0.0384	–	1500.5
298 K, x1 = 0.0407	–	1500.7

From the NIST ThermoML archive (doi:10.1016/j.jct.2012.11.032)
